Experimental data: patent US8912176B2 (Evotec AG, priority 2009, dated 2014)

These compounds were tested against human H3 receptor (Homo sapiens, UniProt Q9Y5N1) (assay: cAMP quantification assay for human H3 receptor (DiscoveRx cAMP XS+)).
Chain of human H3 receptor (Q9Y5N1 whole entry): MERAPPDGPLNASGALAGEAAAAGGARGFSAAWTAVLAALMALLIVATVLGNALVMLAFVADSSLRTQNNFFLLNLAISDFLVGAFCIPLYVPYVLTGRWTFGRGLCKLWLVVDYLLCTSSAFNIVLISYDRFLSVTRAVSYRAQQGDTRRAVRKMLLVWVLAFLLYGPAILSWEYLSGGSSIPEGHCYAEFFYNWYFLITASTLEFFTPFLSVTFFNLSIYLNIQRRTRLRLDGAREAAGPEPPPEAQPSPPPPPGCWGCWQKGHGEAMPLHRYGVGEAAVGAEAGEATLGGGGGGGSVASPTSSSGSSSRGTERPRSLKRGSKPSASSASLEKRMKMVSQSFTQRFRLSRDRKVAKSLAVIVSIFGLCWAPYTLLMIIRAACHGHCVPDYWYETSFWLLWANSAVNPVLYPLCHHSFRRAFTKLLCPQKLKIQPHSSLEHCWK

Row | Compound | IC50
1 | O=C(C1CN(C(=O)N2CCOCC2)C1)N1CCCN(C2CCC2)CC1 [Example 3, 1-cyclobutyl-4-{[1-(morpholin-4-ylcarbonyl)azetidin-3-yl]carbonyl}-1,4-diazepane] | < 0.05 µM
2 | N#Cc1ccc(S(=O)(=O)N2CC(C(=O)N3CCCN(C4CCC4)CC3)C2)cc1 [Example 27, 4-({3-[(4-cyclobutyl-1,4-diazepan-1-yl)carbonyl]azetidin-1-yl}sulfonyl)benzonitrile] | < 0.05 µM
3 | O=C(C1CN(C(=O)N2CCc3ccccc3C2)C1)N1CCCN(C2CCC2)CC1 [Example 65, 2-({3-[(4-cyclobutyl-1,4-diazepan-1-yl)carbonyl]azetidin-1-yl}carbonyl)-1,2,3,4-tetrahydroisoquinoline] | < 0.05 µM
4 | Cc1ccc(C(=O)N2CC(C(=O)N3CCCN(CC(C)C)CC3)C2)cn1 [Example 84, 1-(2-methylpropyl)-4-({1-[(6-methylpyridin-3-yl)carbonyl]azetidin-3-yl}carbonyl)-1,4-diazepane] | 0.1 to 5 µM
5 | O=C(CC1CCCCC1)N1CC(C(=O)N2CCCN(C3CCC3)CC2)C1 [Example 33, 1-cyclobutyl-4-{[1-(cyclohexylacetyl)azetidin-3-yl]carbonyl}-1,4-diazepane] | < 0.05 µM
6 | COc1ccc(S(=O)(=O)N2CC(C(=O)N3CCCN(C4CCC4)CC3)C2)cc1 [Example 23, 1-cyclobutyl-4-({1-[(4-methoxyphenyl)sulfonyl]azetidin-3-yl}carbonyl)-1,4-diazepane] | 0.05 to 0.1 µM
7 | Cc1ccc(C(=O)N2CC(C(=O)N3CCCN(CC4CC4)CC3)C2)cn1 [Example 83, 1-(cyclopropylmethyl)-4-({1-[(6-methylpyridin-3-yl)carbonyl]azetidin-3-yl}carbonyl)-1,4-diazepane] | 0.1 to 5 µM
8 | O=C(c1ccc(-c2cccnc2)cc1)N1CC(C(=O)N2CCCN(C3CCC3)CC2)C1 [Example 44, 1-cyclobutyl-4-({1-[(4-pyridin-3-ylphenyl)carbonyl]azetidin-3-yl}carbonyl)-1,4-diazepane] | < 0.05 µM
9 | O=C(Cn1cccn1)N1CC(C(=O)N2CCCN(C3CCC3)CC2)C1 [Example 15, 1-cyclobutyl-4-{[1-(1H-pyrazol-1-ylacetyl)azetidin-3-yl]carbonyl}-1,4-diazepane] | < 0.05 µM
10 | CN(Cc1ccc(C#N)cc1)C(=O)N1CC(C(=O)N2CCCN(C3CCC3)CC2)C1 [Example 64, N-(4-cyanobenzyl)-3-[(4-cyclobutyl-1,4-diazepan-1-yl)carbonyl]-N-methylazetidine-1-carboxamide] | < 0.05 µM
11 | CN(C(=O)N1CC(C(=O)N2CCCN(C3CCC3)CC2)C1)c1ccc(C#N)cc1 [Example 63] | < 0.05 µM
